Source: patent publication US8849577B2, “Methods of identifying biochemical pathways” (Metabolon, Inc., priority 2006, dated 2014)
“Also recorded” adds a separate entry of the source.

What was measured:
Format in all cases: cell-based, human
[1] = test system: HepG2; assay: Metabolomic analysis of test compounds in HepG2 (hepatocyte) cultures; conditions: Hepatocytes, 30 μM, vs DMSO; for number of compounds affected, # decreased / number of compounds affected, # increased: p < 0.01
Description: (§1) The cell cultures used in this example were performed according to standard protocols with the cells in 10% FCS. […] The adipocytes were human and fully differentiated.
(§2) The target of the agent is not present in the cell cultures assayed, thus the changed compounds for each culture represent off-target effects, and therefore, the number of changed compounds can be used to generate a score that can be used as one criteria to rank the test compounds.

[2] = test system: adipocyte cells; assay: Metabolomic analysis of test compounds in adipocyte cultures; conditions: Primary Adipocytes, 30 μM, vs DMSO; for number of compounds affected, # decreased / number of compounds affected, # increased: p < 0.01
Description: as §1, §2

[3] = test system: preadipocyte cells; assay: Comparative metabolomic analysis of PPAR activators in preadipocyte cells; conditions: 3 hours treatment
Description: The cell used in this assay were preadipocyte cells from a human with a BMI of 23.29. The cells were plated at 1 million per well in 6-well plates. Eight cultures were used for each experimental group. The cells were washed with basal medium (1 ml/well) and treated with compounds in 1 ml of basal medium for 3 hours. After treatment, the cells were then washed with PBS (1 ml), two times and then trypsinized with 300 μl for 5 minutes at 37 degrees. One ml of PM-1 was then added per well to neutralized the trypsin and the cells were collected in 1.5 ml eppendorf tube. The cells were then pelleted by centrifugation (280×g) and the pellets were washed with PBS (1 ml). The cell pellets were then frozen at −80 degrees.

Cc1cccc(C)c1OCC(=O)N[C@@H](Cc1ccccc1)[C@@H](O)C[C@H](Cc1ccccc1)NC(=O)[C@H](C(C)C)N1CCCNC1=O [LPV]
number of compounds affected, Total p < 0.01 [1]: 131 | number of compounds affected, # decreased [1]: 27 | number of compounds affected, # increased [1]: 104 | number of compounds affected, Total p < 0.01 [2]: 99 | number of compounds affected, # decreased [2]: 46 | number of compounds affected, # increased [2]: 53

CC(C)(Sc1ccc(CCN(CCCCC2CCCCC2)C(=O)NC2CCCCC2)cc1)C(=O)O [GW7647]
Ratio Drug/DMSO: 3-phospho-I-serine [3]: 0.89 | Ratio Drug/DMSO: Isobar-17-includes-arginine-N-alpha-acetyl-ornithine [3]: 0.97 | Ratio Drug/DMSO: Isobar-22-includes-glutamic acid-O-acetyl-L-serine [3]: 0.86 | Ratio Drug/DMSO: Isobar-28-includes-L-threonine-L-allothreonine-L-homoserine [3]: 0.82 | Ratio Drug/DMSO: L-alpha-glycerophosphorylcholine [3]: 1.31 | Ratio Drug/DMSO: N-acetyl-D-galactosamine [3]: 0.98 | Ratio Drug/DMSO: adenosine-5-monophosphate [3]: 1.41 | Ratio Drug/DMSO: alanine [3]: 0.95 | Ratio Drug/DMSO: carnitine [3]: 0.83 | Ratio Drug/DMSO: citric acid [3]: 1.06 | Ratio Drug/DMSO: gly-gly [3]: 1.12 | Ratio Drug/DMSO: glycerol [3]: 1.14 | Ratio Drug/DMSO: guanosine [3]: 1.22 | Ratio Drug/DMSO: hypoxanthine [3]: 1.89 | Ratio Drug/DMSO: inosine [3]: 1.89 | Ratio Drug/DMSO: n-hexadecanoic acid [3]: 1.02 | Ratio Drug/DMSO: octadecanoic acid [3]: 1.02 | Ratio Drug/DMSO: pantothenic acid [3]: 0.96 | Ratio Drug/DMSO: phosphoenolpyruvate [3]: 0.91 | Ratio Drug/DMSO: serine [3]: 1.05 | Ratio Drug/DMSO: sn-glycerol-3-phosphate [3]: 1.43 | Ratio Drug/DMSO: tryptophan [3]: 1.06 | metabolite change relative to DMSO control [3]: increase in glycerol; also recorded: more carnitine is being utilized to shuffle FA into the mitochondria and hence, levels decrease

COC(=O)N[C@H](C(=O)N[C@@H](Cc1ccccc1)[C@@H](O)CN(Cc1ccc(-c2ccccn2)cc1)NC(=O)[C@@H](NC(=O)OC)C(C)(C)C)C(C)(C)C [ATV]
number of compounds affected, Total p < 0.01 [1]: 71 | number of compounds affected, # decreased [1]: 55 | number of compounds affected, # increased [1]: 16 | number of compounds affected, Total p < 0.01 [2]: 87 | number of compounds affected, # decreased [2]: 55 | number of compounds affected, # increased [2]: 32

CC1(COc2ccc(CC3SC(=O)NC3=O)cc2)CCCCC1 (stereo not shown) [Ciglitazone]
Ratio Drug/DMSO: 3-phospho-I-serine [3]: 0.91 | Ratio Drug/DMSO: Isobar-17-includes-arginine-N-alpha-acetyl-ornithine [3]: 0.87 | Ratio Drug/DMSO: Isobar-22-includes-glutamic acid-O-acetyl-L-serine [3]: 0.99 | Ratio Drug/DMSO: Isobar-28-includes-L-threonine-L-allothreonine-L-homoserine [3]: 0.72 | Ratio Drug/DMSO: L-alpha-glycerophosphorylcholine [3]: 1.81 | Ratio Drug/DMSO: N-acetyl-D-galactosamine [3]: 0.36 | Ratio Drug/DMSO: adenosine-5-monophosphate [3]: 1.09 | Ratio Drug/DMSO: alanine [3]: 0.91 | Ratio Drug/DMSO: aspartate [3]: 1.29 | Ratio Drug/DMSO: carnitine [3]: 0.90 | Ratio Drug/DMSO: citric acid [3]: 0.86 | Ratio Drug/DMSO: gamma-L-glutamyl-L-glutamin [3]: 0.73 | Ratio Drug/DMSO: glutamine [3]: 0.78 | Ratio Drug/DMSO: gly-gly [3]: 1.36 | Ratio Drug/DMSO: glycerol [3]: 0.93 | Ratio Drug/DMSO: guanosine [3]: 1.55 | Ratio Drug/DMSO: hypoxanthine [3]: 1.76 | Ratio Drug/DMSO: inosine [3]: 2.25 | Ratio Drug/DMSO: n-hexadecanoic acid [3]: 1.05 | Ratio Drug/DMSO: o-phosphoethanolamine [3]: 5.42 | Ratio Drug/DMSO: octadecanoic acid [3]: 1.05 | Ratio Drug/DMSO: oxidized-glutathione [3]: 0.77 | Ratio Drug/DMSO: pantothenic acid [3]: 1.10 | Ratio Drug/DMSO: phosphoenolpyruvate [3]: 0.76 | Ratio Drug/DMSO: serine [3]: 0.98 | Ratio Drug/DMSO: sn-glycerol-3-phosphate [3]: 1.53 | Ratio Drug/DMSO: threonine [3]: 0.84 | Ratio Drug/DMSO: tryptophan [3]: 0.91

Cc1c(C)c2c(c(C)c1O)CCC(C)(COc1ccc(CC3SC(=O)NC3=O)cc1)O2 (stereo not shown) [Troglitazone, troglitazone]
Ratio Drug/DMSO: 3-phospho-I-serine [3]: 0.77 | Ratio Drug/DMSO: Isobar-17-includes-arginine-N-alpha-acetyl-ornithine [3]: 0.82 | Ratio Drug/DMSO: Isobar-22-includes-glutamic acid-O-acetyl-L-serine [3]: 0.92 | Ratio Drug/DMSO: Isobar-28-includes-L-threonine-L-allothreonine-L-homoserine [3]: 0.63 | Ratio Drug/DMSO: L-alpha-glycerophosphorylcholine [3]: 1.24 | Ratio Drug/DMSO: N-acetyl-D-galactosamine [3]: 0.91 | Ratio Drug/DMSO: adenosine-5-monophosphate [3]: 0.95 | Ratio Drug/DMSO: alanine [3]: 0.86 | Ratio Drug/DMSO: aspartate [3]: 2.06 | Ratio Drug/DMSO: carnitine [3]: 0.92 | Ratio Drug/DMSO: citric acid [3]: 0.77 | Ratio Drug/DMSO: gamma-L-glutamyl-L-glutamin [3]: 0.64 | Ratio Drug/DMSO: glutamine [3]: 0.76 | Ratio Drug/DMSO: gly-gly [3]: 1.42 | Ratio Drug/DMSO: glycerol [3]: 1.08 | Ratio Drug/DMSO: guanosine [3]: 0.98 | Ratio Drug/DMSO: hypoxanthine [3]: 1.63 | Ratio Drug/DMSO: inosine [3]: 1.58 | Ratio Drug/DMSO: n-hexadecanoic acid [3]: 1.17 | Ratio Drug/DMSO: o-phosphoethanolamine [3]: 1.50 | Ratio Drug/DMSO: octadecanoic acid [3]: 1.18 | Ratio Drug/DMSO: oxidized-glutathione [3]: 0.77 | Ratio Drug/DMSO: pantothenic acid [3]: 1.33 | Ratio Drug/DMSO: phosphoenolpyruvate [3]: 0.85 | Ratio Drug/DMSO: serine [3]: 0.86 | Ratio Drug/DMSO: sn-glycerol-3-phosphate [3]: 1.42 | Ratio Drug/DMSO: threonine [3]: 0.83 | Ratio Drug/DMSO: tryptophan [3]: 0.98
